We go through 45 molecules from patent US20050004163A1, “3-(diarylmethylene)-8-azabicyclo[3.2.1]octane derivatives” (priority 2000, published 2005).

Usually pKi stands for the Ki on a negative log10 scale, so that one unit is a factor of ten.

pKi: −log10 of the molar value. Where a name gives a salt, the structure may show the parent alone.

T1 sequence (P33535 whole entry): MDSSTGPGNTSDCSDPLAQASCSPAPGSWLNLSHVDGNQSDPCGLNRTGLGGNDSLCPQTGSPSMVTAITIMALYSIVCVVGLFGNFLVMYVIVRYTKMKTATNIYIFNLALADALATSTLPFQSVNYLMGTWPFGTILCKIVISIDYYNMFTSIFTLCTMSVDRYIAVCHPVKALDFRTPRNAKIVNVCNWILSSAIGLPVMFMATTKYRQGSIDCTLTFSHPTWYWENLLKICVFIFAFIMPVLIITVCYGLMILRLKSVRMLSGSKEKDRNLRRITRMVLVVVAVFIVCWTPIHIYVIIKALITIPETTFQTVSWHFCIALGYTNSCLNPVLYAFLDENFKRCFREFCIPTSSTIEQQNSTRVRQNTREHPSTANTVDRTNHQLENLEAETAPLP

The first assay addresses T1, μ-opioid receptor (Rattus norvegicus, UniProt P33535).
T1 construct: the forebrains are homogenized in Tris buffer in a Teflon®-glass homogenizer; from tissue; host or cells: forebrain of male Wistar rats (particulate membrane preparation)
Description: Rat brain μ-opioid receptor binding assay ([3H]DAMGO). The conditions noted are these: 10 nM solutions of the compounds, read-out: MOR binding Ki. Here is the method:
Rat Brain μ-Opioid Receptor Binding Assay
Male, Wistar rats (150-250 g, VAF, Charles River, Kingston, N.Y.) are killed by cervical dislocation and their brains removed and placed immediately in ice cold Tris HCl buffer (50 mM, pH 7.4). The forebrains are separated from the remainder of the brain by a coronal transection, beginning dorsally at the colliculi and passing ventrally through the midbrain-pontine junction. After dissection, the forebrains are homogenized in Tris buffer in a Teflon®-glass homogenizer. The homogenate is diluted to a concentration of 1 g of forebrain tissue per 100 mL Tris buffer and centrifuged at 39,000×G for 10 min. The pellet is resuspended in the same volume of Tris buffer with several brief pulses from a Polytron homogenizer. This particulate preparation is used for the μ-opioid binding assays. […] The tubes and filters are rinsed three times with 4 mL of 10 mM HEPES (pH 7.4) and the radioactivity associated with the filter circles determined using Formula 989 scintillation fluid (New England Nuclear, Boston, Mass.) in a scintillation counter.
The data are used to calculate either the % inhibition compared to control binding (when only a single concentration of test compound is evaluated) or a Ki value (when a range of concentrations is tested).
% Inhibition is calculated as follows: [formula]
Ki value is calculated using the LIGAND (Munson, P. J. and Rodbard, D., Anal. Biochem. 107: 220-239, 1980) data analysis program.
Regarding `CCNC(=O)c1ccc(C(=C2CC3CCC(C2)N3CC=C(C)C)c2cccc(C(=O)O)c2)cc1` (single isomer, unassigned) [Cpd 44], the pKi was 7.23.
Same read-out and setting: for `CCNC(=O)c1ccc(C(=C2CC3CCC(C2)N3CC=C(C)C)c2cccc(C(=O)O)c2)cc1` (single isomer, unassigned) [Cpd 45] the value was 7.63.
`CCNC(=O)c1ccc(C(=C2CC3CCC(C2)N3Cc2ccsc2)c2ccc(CO)cc2)cc1` (single isomer, unassigned) [Cpd 206]: the pKi was 7.10.
Turning to `CCNC(=O)c1ccc(C(=C2CC3CCC(C2)N3Cc2ccsc2)c2ccc3c(c2)OCO3)cc1` [Cpd 7], the pKi was 8.52.
On the same count and under the same terms, for `CCNC(=O)c1ccc(C(=C2CC3CCC(C2)N3Cc2ccoc2)c2ccc3c(c2)OCO3)cc1` [Cpd 10] the value was 8.97.
With `CCNC(=O)c1ccc(C(=C2CC3CCC(C2)N3Cc2ccc3ccccc3n2)c2ccccn2)cc1` [Cpd 13], the pKi was 6.91.
On the same count and under the same terms, for `CCNC(=O)c1ccc(C(=C2CC3CCC(C2)N3Cc2ccsc2)c2cnc3ccccc3c2)cc1` [Cpd 15] the value was 6.90; for `CCNC(=O)c1ccc(C(=C2CC3CCC(C2)N3Cc2ccco2)c2cnc3ccccc3c2)cc1` [Cpd 16], 7.09; for `CCNC(=O)c1ccc(C(Br)=C2CC3CCC(C2)N3Cc2ccc(NC(C)=O)cc2)cc1` [Cpd 21], 7.32.
Consider `CCNC(=O)c1ccc(C(Br)=C2CC3CCC(C2)N3Cc2ccsc2)cc1` [Cpd 23], for which the pKi is 8.21.
Regarding `CCNC(=O)c1ccc(C(Br)=C2CC3CCC(C2)N3Cc2ccco2)cc1` [Cpd 24], the negative-log Ki (pKi) was 7.66.
Regarding `CCNC(=O)c1ccc(C(Br)=C2CC3CCC(C2)N3Cc2ccc3ccccc3n2)cc1` [Cpd 25], the negative-log Ki (pKi) was 7.02.
Consider `CCNC(=O)c1ccc(C(Br)=C2CC3CCC(C2)N3Cc2sccc2C)cc1` [Cpd 28], for which the pKi was 7.16.
On the same count and under the same terms, for `CCNC(=O)c1ccc(C=C2CC3CCC(C2)N3Cc2ncc[nH]2)cc1` [Cpd 32] the value was 6.41.

The same assay, now with this note: MOR binding Ki.
Molecule `CCNC(=O)c1ccc(C=C2C[C@H]3CC[C@@H](C2)N3CCc2ccccc2)cc1` (single isomer, unassigned) [Cpd 41, (+)—N-Ethyl-4-(8-phenethyl-8-aza-bicyclo[3.2.1]oct-3-ylidenemethyl)-benzamide] showed a pKi of 6.91.
The molecule `CCNC(=O)c1ccc(C=C2C[C@H]3CC[C@@H](C2)N3CCc2ccccc2)cc1` (single isomer, unassigned) [Cpd 42, (−)—N-Ethyl-4-(8-phenethyl-8-aza-bicyclo[3.2.1]oct-3-ylidenemethyl)-benzamide] had a pKi of 8.22.
The same measure, in the same setting: next, `CCNC(=O)c1ccc(C(Br)=C2C[C@H]3CC[C@@H](C2)N3)cc1` (single isomer, unassigned) [Cpd 92]: 6.94; `CCNC(=O)c1ccc(C(=C2C[C@H]3CC[C@@H](C2)N3Cc2ccsc2)c2ccc(CO)cc2)cc1` (single isomer, unassigned) [Cpd 196, N-Ethyl-4-[(4-hydroxymethyl-phenyl)-(8-thiophen-3-ylmethyl-8-aza-bicyclo[3.2.1]oct-3-ylidene)-methyl]-benzamide]: 8.39; `CCNC(=O)c1ccc(C(=C2CC3CCC(C2)N3)c2nnn[nH]2)cc1` (single isomer, unassigned) [Cpd 201]: 4.91.
Regarding `CCNC(=O)c1ccc(C(=C2CC3CCC(C2)N3)c2nnn[nH]2)cc1` (single isomer, unassigned) [Cpd 202], the pKi was 5.09.
Regarding `CCNC(=O)c1ccc(C(=C2CC3CCC(C2)N3Cc2ccco2)c2nnn[nH]2)cc1` (single isomer, unassigned) [Cpd 203], the pKi was 5.26.
Consider `CCNC(=O)c1ccc(C(C#N)=C2CC3CCC(C2)N3Cc2ccoc2)cc1` (single isomer, unassigned) [Cpd 209], for which the pKi was 8.59.
Still for that read-out and setting: for `CCNC(=O)c1ccc(C(C#N)=C2CC3CCC(C2)N3Cc2ccoc2)cc1` (single isomer, unassigned) [Cpd 210] the value was 8.64; for `CCNC(=O)c1ccc(C(Br)=C2CC3CCC(C2)N3Cc2ccoc2)cc1` (single isomer, unassigned) [Cpd 211], 9.64.
As to `CCNC(=O)c1ccc(C(Br)=C2CC3CCC(C2)N3Cc2ccoc2)cc1` (single isomer, unassigned) [Cpd 212], the negative-log Ki (pKi) is 7.41.
The same measure, in the same setting: for `CCNC(=O)c1ccc(C(=C2CC3CCC(C2)N3Cc2ccsc2)c2cccc(-c3nnn[nH]3)c2)cc1` (single isomer, unassigned) [Cpd 215] the value was 5.51.
Turning to `CCNC(=O)c1ccc(C(=C2CC3CCC(C2)N3Cc2ccsc2)c2cccc(-c3nnn[nH]3)c2)cc1` (single isomer, unassigned) [Cpd 216], the pKi was 7.92.
Same read-out and setting: next, `CCNC(=O)c1ccc(C(=C2C[C@H]3CC[C@@H](C2)N3C(=O)Cc2ccccc2)c2cccnc2)cc1` (single isomer, unassigned) [Cpd 217]: 8.51; `CCNC(=O)c1ccc(C=C2CC3CCC(C2)N3CC(N)Cc2ccccc2)cc1` (stereo not drawn) [Cpd 1, 4-[8-(2-Amino-3-phenyl-propyl)-8-aza-bicyclo[3.2.1]oct-3-ylidenemethyl]-N-ethyl-benzamide Hydrochloride]: 6.47.
In turn, `CCNC(=O)c1ccc(C(=C2CC3CCC(C2)N3Cc2ccc3ccccc3n2)c2cccc(F)c2)cc1` [Cpd 3] had a negative-log Ki (pKi) of 7.13.
Same read-out and setting: next, `CCNC(=O)c1ccc(C(=C2CC3CCC(C2)N3Cc2ccc(NC(C)=O)cc2)c2ccc3c(c2)OCO3)cc1` [Cpd 5]: 7.14; `CCNC(=O)c1ccc(C(=C2CC3CCC(C2)N3Cc2ncc[nH]2)c2ccc3c(c2)OCO3)cc1` [Cpd 6]: 7.45.
As for `CCNC(=O)c1ccc(C(=C2CC3CCC(C2)N3Cc2ccco2)c2ccc3c(c2)OCO3)cc1` [Cpd 8], the pKi is 8.13.
The same measure, in the same setting: for `CCNC(=O)c1ccc(C(=C2CC3CCC(C2)N3Cc2ccc3ccccc3n2)c2ccc3c(c2)OCO3)cc1` [Cpd 9] the value was 7.47; for `CCNC(=O)c1ccc(C(=C2CC3CCC(C2)N3Cc2[nH]cnc2C)c2ccc3c(c2)OCO3)cc1` [Cpd 11], 7.34; for `CCNC(=O)c1ccc(C(=C2CC3CCC(C2)N3Cc2sccc2C)c2ccc3c(c2)OCO3)cc1` [Cpd 12], 6.89.
Still for that read-out and setting: next, `CCNC(=O)c1ccc(C(=C2CC3CCC(C2)N3Cc2ccc(NC(C)=O)cc2)c2cnc3ccccc3c2)cc1` [Cpd 14]: 6.02.
As for `CCNC(=O)c1ccc(C(=C2CC3CCC(C2)N3Cc2ccoc2)c2cnc3ccccc3c2)cc1` [Cpd 17], the pKi is 7.69.
On the same count and under the same terms, next, `CCNC(=O)c1ccc(C(=C2CC3CCC(C2)N3Cc2sccc2C)c2cnc3ccccc3c2)cc1` [Cpd 18]: 6.25.
Same read-out and setting: for `CCNC(=O)c1ccc(C(=C2CC3CCC(C2)N3Cc2ccc3ccccc3n2)c2cccc(C#N)c2)cc1` [Cpd 20] the value was 6.89; for `CCNC(=O)c1ccc(C(Br)=C2CC3CCC(C2)N3Cc2ncc[nH]2)cc1` [Cpd 22], 7.23; for `CCNC(=O)c1ccc(C(Br)=C2CC3CCC(C2)N3Cc2ccoc2)cc1` [Cpd 26], 8.73.
Same read-out and setting: next, `CCNC(=O)c1ccc(C(Br)=C2CC3CCC(C2)N3Cc2[nH]cnc2C)cc1` [Cpd 27]: 7.00; `CCNC(=O)c1ccc(C(=C2CC3CCC(C2)N3Cc2ccc3ccccc3n2)c2cnccn2)cc1` [Cpd 30]: 7.82.
For the molecule `CCNC(=O)c1ccc(C=C2CC3CCC(C2)N3Cc2ccc(NC(C)=O)cc2)cc1` [Cpd 31], the pKi is 7.59.
